Measurements as given in patent publication US7138361B2, “Herbicidal heterocycles” (E. I. du Pont de Nemours and Company, priority 2000, dated 2006).

What was measured:
Experiment in all cases: Test C preemergence
Assay type in all cases: in vivo
[1] = test system: morningglory (Ipomoea hederacea)
How it was run: (§1)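 Each compound was dissolved in a non-phytotoxic solvent system containing a surfactant and sprayed either on freshly planted seeds (preemergence) or on young plants, 2 to 18 cm high (postemergence). Ratings after 12 to 14 greenhouse days ran from 0, no effect, to 100, complete control.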

[2] = test system: giant foxtail (Setaria faberii)
How it was run: as §1

[3] = test system: Surinam grass (Brachiaria decumbens)
How it was run: as §1

Nightshade = test system: Nightshade
kochia (Kochia scoparia) = test system: kochia (Kochia scoparia)
How it was run: as §1

[4] = test system: goosegrass (Eleusine indica)
How it was run: as §1

[5] = test system: bermudagrass (Cynodon dactylon)
How it was run: as §1

[6] = test system: crabgrass (Digitaria sanguinalis)
How it was run: as §1

[7] = test system: woolly cupgrass (Eriochloa villosa)
How it was run: as §1

corn (Zea mays) = test system: corn (Zea mays)
How it was run: as §1

[8] = test system: yellow nutsedge (Cyperus esculentus)
How it was run: as §1

Sunflower [9] = conditions: Rate 125 g/ha; scale 0 to 100, 0 no effect, 100 complete control
soybean (Glycine max) = test system: soybean (Glycine max)
How it was run: as §1

[10] = test system: velvetleaf (Abutilon theophrasti)
How it was run: as §1

[11] = test system: common ragweed (Ambrosia elatior)
How it was run: as §1

[12] = test system: cocklebur (Xanthium strumarium)
How it was run: as §1

[13] = test system: pigweed (Amaranthus retroflexus)
How it was run: as §1

[14] = test system: johnsongrass (Sorghum halepense)
How it was run: as §1

[15] = test system: lambsquarters (Chenopodium album)
How it was run: as §1

Sunflower [16] = conditions: Rate 250 g/ha, scale 0 to 100, 0 no effect, 100 complete control
[17] = Rate 125 g/ha, scale 0 to 100, 0 no effect, 100 complete control
[18] = preemergence, Rate 62 g/ha, scale 0 to 100
[19] = preemergence, Rate 500 g/ha, visual evaluation after 12 to 14 days
[20] = preemergence, Rate 250 g/ha, scale 0 to 100, 0 no effect, 100 complete control

Compound: CC(C)(C)c1ccn(C2CCN(c3cccc(I)c3)C2=O)n1 (stereo not shown) [Compound 88]
- Plant response rating, Morningglory [1, 17]: 10
- Plant response rating, Morningglory [1, 18]: 10
- Plant response rating (0 to 100), Morningglory [1, 19]: 30
- Plant response rating, Morningglory [1, 20]: 30
- Plant response rating, Foxtail, Giant [2, 17]: 100
- Plant response rating, Foxtail, Giant [2, 18]: 0
- Plant response rating (0 to 100), Foxtail, Giant [2, 19]: 100
- Plant response rating, Foxtail, Giant [2, 20]: 100
- Plant response rating, Surinam grass [3, 17]: 30
- Plant response rating, Surinam grass [3, 18]: 40
- Plant response rating (0 to 100), Surinam grass [3, 19]: 100
- Plant response rating, Surinam grass [3, 20]: 70
- Plant response rating, Nightshade (Nightshade; Rate 62 g/ha, scale 0 to 100): 30
- Plant response rating, Nightshade (Nightshade; [17]): 20
- Plant response rating, Nightshade (Nightshade; Rate 250 g/ha, scale 0 to 100, 0 no effect, 100 complete control): 80
- Plant response rating, Kochia (kochia (Kochia scoparia); [17]): 90
- Plant response rating, Kochia (kochia (Kochia scoparia); [18]): 70
- Plant response rating (0 to 100), Kochia (kochia (Kochia scoparia); [19]): 100
- Plant response rating, Kochia (kochia (Kochia scoparia); [20]): 100
- Plant response rating, Goosegrass [4, 17]: 100
- Plant response rating, Goosegrass [4, 18]: 100
- Plant response rating (0 to 100), Goosegrass [4, 19]: 100
- Plant response rating, Goosegrass [4, 20]: 100
- Plant response rating, Bermudagrass [5, 17]: 100
- Plant response rating, Bermudagrass [5, 18]: 100
- Plant response rating (0 to 100 where 0 is no effect and 100 is complete control), Bermudagrass [5, 19]: 100
- Plant response rating, Bermudagrass [5, 20]: 100
- Plant response rating, Crabgrass [6, 17]: 100
- Plant response rating, Crabgrass [6, 18]: 100
- Plant response rating (0 to 100), Crabgrass [6, 19]: 100
- Plant response rating, Crabgrass [6, 20]: 100
- Plant response rating, Cupgrass, Woolly [7, 17]: 90
- Plant response rating, Cupgrass, Woolly [7, 18]: 60
- Plant response rating (0 to 100), Cupgrass, Woolly [7, 19]: 100
- Plant response rating, Cupgrass, Woolly [7, 20]: 100
- Plant response rating, Corn (corn (Zea mays); [17]): 10
- Plant response rating, Corn (corn (Zea mays); [18]): 0
- Plant response rating (0 to 100), Corn (corn (Zea mays); [19]): 100
- Plant response rating, Corn (corn (Zea mays); [20]): 70
- Plant response rating, Nutsedge [8, 17]: 0
- Plant response rating, Nutsedge [8, 18]: 0
- Plant response rating (0 to 100), Nutsedge [8, 19]: 10
- Plant response rating, Nutsedge [8, 20]: 0
- Plant response rating, Sunflower (Sunflower [9]): 40
- Plant response rating, Soybean (soybean (Glycine max); [17]): 10
- Plant response rating, Soybean (soybean (Glycine max); [18]): 0
- Plant response rating (0 to 100), Soybean (soybean (Glycine max); [19]): 30
- Plant response rating, Soybean (soybean (Glycine max); [20]): 10
- Plant response rating, Velvetleaf [10, 17]: 10
- Plant response rating, Velvetleaf [10, 18]: 0
- Plant response rating (0 to 100), Velvetleaf [10, 19]: 20
- Plant response rating, Velvetleaf [10, 20]: 10
- Plant response rating, Ragweed, Common [11, 17]: 0
- Plant response rating, Ragweed, Common [11, 18]: 0
- Plant response rating (0 to 100), Ragweed, Common [11, 19]: 20
- Plant response rating, Ragweed, Common [11, 20]: 0
- Plant response rating, Cocklebur [12, 17]: 0
- Plant response rating, Cocklebur [12, 18]: 0
- Plant response rating (0 to 100), Cocklebur [12, 19]: 20
- Plant response rating, Cocklebur [12, 20]: 20
- Plant response rating, Pigweed [13, 17]: 10
- Plant response rating, Pigweed [13, 18]: 0
- Plant response rating (0 to 100), Pigweed [13, 19]: 100
- Plant response rating, Pigweed [13, 20]: 40
- Plant response rating, Johnsongrass [14, 17]: 10
- Plant response rating, Johnsongrass [14, 18]: 10
- Plant response rating (0 to 100), Johnsongrass [14, 19]: 100
- Plant response rating, Johnsongrass [14, 20]: 40
- Plant response rating, Lambsquarters [15, 17]: 100
- Plant response rating, Lambsquarters [15, 18]: 100
- Plant response rating (0 to 100), Lambsquarters [15, 19]: 100
- Plant response rating, Lambsquarters [15, 20]: 100
- Plant response rating, Sunflower (Sunflower [16]): 20
